Consider seven compounds from patent US20010046684A1, “Methods of structure-based drug design using MS/MNR” (priority 2000, published 2001).

Assay [1] concerns the target T1, MMP-1 (Homo sapiens, UniProt P03956).
T1 sequence (P03956 100-469): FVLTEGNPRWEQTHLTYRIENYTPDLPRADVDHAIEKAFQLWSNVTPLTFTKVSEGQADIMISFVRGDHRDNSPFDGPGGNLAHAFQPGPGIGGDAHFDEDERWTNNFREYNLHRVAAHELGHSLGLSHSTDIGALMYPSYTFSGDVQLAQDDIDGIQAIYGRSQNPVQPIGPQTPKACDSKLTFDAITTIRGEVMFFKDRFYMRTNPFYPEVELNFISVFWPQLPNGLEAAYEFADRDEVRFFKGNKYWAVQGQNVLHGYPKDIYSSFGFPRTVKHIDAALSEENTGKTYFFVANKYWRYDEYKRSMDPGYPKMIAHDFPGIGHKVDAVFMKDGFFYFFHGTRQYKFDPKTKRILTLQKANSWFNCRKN
The note with it: Inhibitors of MMP-1; compounds having known affinities, previously tested; cited from earlier work.

The target of assay [2] is T2, MMP-1 (Homo sapiens, UniProt P03956).
T2 construct: made in house
T2 sequence (P03956 101-269 limits assumed): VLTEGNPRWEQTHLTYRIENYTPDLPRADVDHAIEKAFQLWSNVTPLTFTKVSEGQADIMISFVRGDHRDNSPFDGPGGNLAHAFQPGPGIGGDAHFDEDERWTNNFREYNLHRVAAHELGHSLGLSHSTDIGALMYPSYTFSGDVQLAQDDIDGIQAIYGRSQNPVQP
In words: 2D 1H-15N HSQC NMR chemical shift perturbation of 15N-MMP-1. The assay is classed as binding. Particulars: 0.2 mM 15N-MMP-1, compound 0.2-4.0 mM, pH 6.5, 35° C. The protocol: MMP-1 was labeled as described in Moy, J. Biomol. NMR, Vol. 10: 9-19 (1997). […] The 2D ^1H—^15N HSQC spectra were recorded with 256 complex points in t1, 2048 real points in t2, and 192 scans per increment. Spectra windows for t1 and t2 were 1723.7 and 8064.5 Hz, respectively, with the carrier at 4.75 and 115.2 ppm, respectively. Data were processed and analyzed using NMRPipe, NMRWish [F. Delaglio, S. Grzesiek, G. W. Vuister, G. Zhu, J. Pfeifer, and A. Bax J. Biomol. NMR 6, 277 (1995). ] and PIPP [D. S. Garrett, R. Powers, A. M. Gronenborn, and G. M. Clore J. Magn. Reson. 95, 214-20 (1991).] on a Sun Ultra 10 workstation. […] (FIG. 4A, 4B, 4C), i.e. stronger binding contributes to greater perturbations and weaker binding to less perturbations.

Assay [3] has as its target T1, MMP-1. Put plainly: Gel-filtration (Sephedex G25) / ESI mass spectral analysis of binding to MMP-1. Particulars: 1 mM compound, 0.1 mM MMP-1, pH 6.5, room temperature, 30 minutes; unbound compound alone is retained. The protocol: 1 mM each of compounds 1, 2 and 3 (Table 1) were dissolved in DMSO and each incubated alone or in the presence of MMP-1 at a 0.1 mM in a buffer consisting of 20 mM Tris, 100 mM NaCl, 5 mM CaCl2, 0.1 mM ZnCl2, 2 mM NaN3 and 3.5 mM DTT at pH 6.5 at room temperature for 30 minutes. The final concentration of DMSO in the MMP-1:compound mixture was 5%. A total volume of 25 μl of each sample was loaded on a Sephedex G25 column in a Millipore multiscreen filtration system composed of a 0.65 μm hydrophilic durapore filter. The samples were eluted using centrifugation (15,000×g for 3 minutes). Samples were collected and analyzed by mass spectroscopy using automated ESI/MS methods in both positive and negative ionization modes with a Micromass LCT quadrapole time of flight mass spectrometer and Quattro I triple-quadrapole mass spectrometer each equipped with a Gilson 215 liquid handler.

Regarding `COc1ccc(S(=O)(=O)N(CC(=O)O)c2c(C)cccc2C(=O)NO)cc1` [Compound 3, [(2-Hydroxycarbamoyl-6-methyl-phenyl)-(4-methoxy-benzenesulfonyl)-amino)-acetic acid], the IC50 – broadly, the concentration at which inhibition is half-maximal – in assay [1] was 89000 nM. Also, the “Chemical shift perturbations in 2D 1H-15N HSQC spectrum of MMP-1” value in assay [2] was “induce chemical shift perturbations for residues in the vicinity of the catalytic Zn and S1′ pocket in the MMP-1 active site”. In addition, the “Elution of compound through size-exclusion column in presence of MMP-1 (binding detected by ESI/MS)” value (shortened to “Elution”) in assay [3] is “compound bound to MMP-1 is eluted”.

Take `COc1ccc(S(=O)(=O)C(CCC(C)C)(Cc2cccnc2)C(=O)NO)cc1` (centres unmarked) [Compound 7, 2-(4-Methoxy-benzenesulfonyl)-5-methyl-2-pyridin-3-ylmethyl-hexanoic acid hydroxyamide]: in assay [1], the IC50 was 760 nM.

Regarding `Cc1cc(Br)cc(C(=O)NO)c1N(C)S(=O)(=O)c1ccc2ccccc2c1` [Compound 11, 5-Bromo-N-hydroxy-3-methyl-2-[methyl-(naphthalene-2-sulfonyl)-amino]-benzamide], the IC50 in assay [1] was 1100 nM.

Turning to `COc1ccc(S(=O)(=O)N(Cc2ccccc2)c2ccc(C)cc2C(=O)NO)cc1` [Compound 4, 2-[Benzyl-(4-methoxy-benzenesulfonyl)-amino]-N-hydroxy-5-methyl-benzamide], the IC50 in assay [1] is 408 nM.

In the case of `COc1ccc(S(=O)(=O)N(Cc2cccnc2)[C@@H](C(=O)NO)C(C)C)cc1` [Compound 1, N2-(4-Methoxy-benzenesulfonyl)-N2-[(pyridin-3-yl)methyl]-N-hydroxy-D-valinamide], in assay [3], the “Elution” value is on record as “compound bound to MMP-1 is eluted”.

`COc1ccc(S(=O)(=O)N(Cc2cccnc2)c2c(C(=O)O)cccc2C(=O)NO)cc1` [Compound 2, N-Hydroxy-2-[(4-methoxy-benzenesulfonyl)-pyridin-3-ylmethyl-amino]-isophthalamic acid]: in assay [1], the IC50 was 9900 nM. Further, the “Chemical shift perturbations in 2D 1H-15N HSQC spectrum of MMP-1” value in assay [2] was “induce chemical shift perturbations for residues in the vicinity of the catalytic Zn and S1′ pocket in the MMP-1 active site”. Moreover, the “Elution” value in assay [3] was “compound bound to MMP-1 is eluted”.

“3-[4-(2-Azepan-1-yl-ethoxy)-phenyl]-N-hydroxy-2-(4-methoxy-benzenesulfonyl)-2-propionamide [Compound 13]”: the IC50 in assay [1] is 540 nM.
